Laboratory results published in PubChem BioAssay (NCI).
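Tested at 5 concentrations; 48 h exposure; 96-well plates; endpoints linearly interpolated, else capped at highest concentration. The concentration for full growth arrest is given as TGI.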

How the values were obtained:
Test in all cases: NCI-60 cell line screen, 48 h
[1] = tested on: 786-0 renal
[2] = tested on: A498 renal
[3] = tested on: A549 NSCLC
[4] = tested on: ACHN renal
[5] = tested on: BT-549 breast
[6] = tested on: CAKI-1 renal
[7] = tested on: CCRF-CEM leukemia
[8] = tested on: COLO 205 colon
[9] = tested on: DU-145 prostate
[10] = tested on: EKVX NSCLC
[11] = tested on: HCC-2998 colon
[12] = tested on: HCT-116 colon
[13] = tested on: HCT-15 colon
[14] = tested on: HOP-62 NSCLC
[15] = tested on: HOP-92 NSCLC
[16] = tested on: HS 578T breast
[17] = tested on: HT29 colon
[18] = tested on: IGROV1 ovarian
[19] = tested on: K-562 leukemia
[20] = tested on: KM12 colon
[21] = tested on: M14 melanoma
[22] = tested on: MALME-3M melanoma
[23] = tested on: MCF7 breast
[24] = tested on: MDA-MB-231 breast
[25] = tested on: MDA-MB-435
[26] = tested on: MDA-N
[27] = tested on: MOLT-4 leukemia
[28] = tested on: NCI-H23 lung
[29] = tested on: NCI-H460 lung
[30] = tested on: NCI-H522 lung
[31] = tested on: NCI/ADR-RES ovarian
[32] = tested on: OVCAR-3 ovarian
[33] = tested on: OVCAR-4 ovarian
[34] = tested on: OVCAR-5 ovarian
[35] = tested on: OVCAR-8 ovarian
[36] = tested on: PC-3 prostate
[37] = tested on: RPMI-8226 leukemia
[38] = tested on: RXF 393 renal
[39] = tested on: SF-268 CNS
[40] = tested on: SF-295 CNS
[41] = tested on: SK-MEL-2 melanoma
[42] = tested on: SK-MEL-28 melanoma
[43] = tested on: SK-MEL-5 melanoma
[44] = tested on: SK-OV-3 ovarian
[45] = tested on: SNB-19 CNS
[46] = tested on: SNB-75 CNS
[47] = tested on: SR leukemia
[48] = tested on: SW-620 colon
[49] = tested on: T-47D breast
[50] = tested on: TK-10 renal
[51] = tested on: U251 CNS
[52] = tested on: UACC-257 melanoma
[53] = tested on: UACC-62 melanoma
[54] = tested on: UO-31 renal
[55] = tested on: HL-60(TB) leukemia
[56] = tested on: LOX IMVI melanoma
[57] = tested on: NCI-H226 lung
[58] = tested on: SF-539 CNS
[59] = tested on: SN12C renal

Measured: TGI

COC(=O)C1CCC(=S)N1C(=O)OCc1ccccc1 (configuration not stated)
not listed: [55] | [56] | [57] | [58] | [59]
> 100 µM: all other assays above

N#CC1(C#N)NC(c2ccccc2)C(C#N)(C#N)NC1c1ccccc1 (configuration not stated)
not listed: [47]
> 100 µM: all other assays above

CC1(C)[C@@H]2CC[C@]1(C)[C@H](OC(=O)/C=C/c1ccccc1)C2
19.6 µM: [32]
63.3 µM: [52]
30.6 µM: [48]
51.8 µM: [18]
33.4 µM: [13]
41.8 µM: [10]
41.7 µM: [16]
31.9 µM: [4]
33.2 µM: [38]
35 µM: [24] | [41]
47.9 µM: [9]
34.2 µM: [49]
40.5 µM: [55]
28.6 µM: [30]
55.1 µM: [33]
38.1 µM: [12] | [19]
36.4 µM: [57]
84.2 µM: [44]
30.7 µM: [11]
48 µM: [5]
34 µM: [54]
32.3 µM: [1] | [2]
42.6 µM: [20]
50.4 µM: [42]
> 100 µM: [3] | [29] | [50]
41.6 µM: [7]
70.8 µM: [21]
37.1 µM: [56] | [31]
31 µM: [8]
33.7 µM: [17]
57.5 µM: [53]
38.5 µM: [22]
56.4 µM: [36]
63.1 µM: [14]
30.5 µM: [43]
36.3 µM: [40] | [45]
33.3 µM: [46]
35.9 µM: [58]
30.8 µM: [23]
39.1 µM: [34]
92.6 µM: [26]
36.5 µM: [35]
50.8 µM: [28]
77.7 µM: [25]
38 µM: [6]
34.3 µM: [59]
33.9 µM: [39]
32.4 µM: [51]
